Tests used:
[1] = system: anti-BCMA CAR T cells; assay: Cytokines in culture supernatant 24 hours after addition of BCMA-conjugated beads; type: cell-based, human
Description: (§1) Cryofrozen anti-BCMA CAR T cells, produced substantially as described in Example 2 and formulated at a 1:1 ratio of CD4+ and CD8+ T cells, were thawed. Unless otherwise indicated, beads (diameter about 4.5 μm) from a 5 μg/ml or 50 μg/ml BCMA-conjugated bead composition, generated as described in Example 1, were added to the wells at a ratio of T cells to beads of 1:2 in the presence or absence of 5 μM lenalidomide. Cells were incubated up to 14 days and analyzed at various time points for cytokine secretion, cell expansion by flow cytometry for the EGFRt surrogate marker, and for cytolytic activity.
Twenty four hours after addition of BCMA-conjugated beads, the presence of TNF-α, IFNγ, and IL-2 in culture supernatants was assessed.
In a further exemplary study, two different anti-BCMA CAR T cell compositions were generated from different donors, each containing T cells expressing the same anti-BCMA CAR. The cells were thawed and incubated with beads (diameter about 4.5 μm) from a 5 μg/mL or 200 μg/mL BCMA-conjugated bead composition generated as described in Example 1. The incubation was carried out at a ratio of T cells to beads of 1:1 in the presence or absence of 1 μM or 5 μM lenalidomide. Twenty four hours after addition of BCMA-conjugated beads, IL-2 production by the anti-BCMA CAR+ T cells was assessed in culture supernatants.

[2] = system: RPMI-8226 target cells; assay: Cytolytic activity and cytokine production of bead-prestimulated CAR-T cells on target cells; type: cell-based
Description: Anti-BCMA CAR-T cells, generated from samples from representative healthy donors or multiple myeloma patient derived material, and cultured with 50 μg/mL BCMA-Fc conjugated beads (generated as described in Example 1) at a ratio of 1:1 bead:CAR+ T cell for 7 days, in the presence of […] lenalidomide or a vehicle control. Expression of CD25, PD-1, Tim3 and Lag3 on CAR T cells (using an antibody for surrogate CAR marker) cultured under the different conditions then was assessed by flow cytometry.
Specifically, for pretreated cells in which pretreatment had been conducted in the presence of lenalidomide, the cells were cultured with the target cells in the presence of lenalidomide; likewise, for pretreated cells in which pretreatment had been conducted in the presence of vehicle, cells were cultured with the target cells in the presence of vehicle. Following the co-culture, cytolytic activity was assessed by measuring the loss of viable target cells over a period of seven days, as determined by red fluorescent signal. Percentage killing was normalized to anti-BCMA CAR T cells prestimulated on beads in the presence of vehicle. Cytokine production was assessed by ELISA from supernatant following culture with target cells for 24 hours. Experiments were performed twice in 3 donors. […]

[3] = system: anti-BCMA CAR+ T cells; assay: Surface markers and proliferation at different T cell:bead ratios with or without lenalidomide; type: cell-based, human
Description: In another experiment, approximately 1.5×10^6 CAR+ T cells, prepared as described above, were added to wells of a 12-well plate and were incubated with beads from a 200 μg BCMA-conjugated bead composition at a ratio of CAR+ T cell to BCMA-conjugated bead of 1:0.3, 1:1 or 1:3 (approximately 0.5×10^6, 1.5×10^6, and 4.5×10^6 beads per well, respectively). As controls, 5 μg/mL anti-CD3 antibody was coated to wells (sub-optimal concentration for stimulation) or cells were seeded in the absence of any agent (no stimulation control). Each condition was incubated in the presence or absence of 5 μM lenalidomide. […] […] There also was a slight increase in PD-1 surface expression on CD8+ cells when stimulated with BCMA-conjugated beads at the higher BCMA bead concentration provided at the ratio of 1:3 CAR+ T cells to beads. The results are consistent with a finding that the BCMA concentration present during the incubation can differentially modulate surface marker expression on the CAR+ T cells.

[4] = system: anti-BCMA CAR+ T cells; assay: Cell count and CTV proliferation after BCMA-conjugated bead stimulation; type: cell-based, human; settings: 5 μM lenalidomide
Description: as §1
Total cell count, monitored at day 4 (FIG. 9G) and day 7 (FIG. 9H), was increased following stimulation of anti-BCMA CAR+ T cells with beads from a 50 μg/mL BCMA-conjugated bead composition, but not 5 μg/mL BCMA-conjugated bead composition, compared to the cells present at the time of initiation of the incubation (dashed line).
To further assess proliferation, the cells containing anti-BCMA CAR-expressing T cells were labeled with the proliferation marker dye CELLTRACE VIOLET (CTV; ThermoFisher Scientific, Waltham Mass.) in accordance with the manufacturer's protocol prior to incubation with the BCMA-conjugated beads. Proliferation was assessed by dye dilution using flow cytometry on cells that were stimulated with beads from the 50 μg/mL BCMA-conjugated bead composition.

[5] = system: anti-BCMA CAR+ T cells; assay: Expansion of EGFRt+ cells after BCMA-conjugated bead stimulation; type: cell-based, human; settings: 5 μM lenalidomide
Description: as §1
Four days and seven days after addition of BCMA-conjugated beads, the incubated cells were stained with CD4 or CD8 and with an anti-EGFR antibody to determine the percentage of cells positive for EGFRt as a surrogate for CAR+ T cells. At the time of plating, 26% of the CD4+ cells expressed anti-BCMA CAR and 39% of the CD8+ cells expressed anti-BCMA CAR as determined by staining with BCMA-Fc. The percent of EGFRt+CD4+ T cells increased from about 26% at the initiation of the incubation to greater than 40% by day 4 (FIG. 9J) and greater than 60% by day 7 (FIG. 9K) when the cells were incubated in the presence of beads from a 50 μg/mL BCMA-conjugated bead composition. […]

## Nc1cccc2c1CN(C1CCC(=O)NC1=O)C2=O (stereo not drawn) [lenalidomide]
[1]; 1 μM or 5 μM, 200 or 5 μg/mL beads
  cytokine (IL-2) production: increased cytokine production in the presence of both the high and low antigen stimulation
[1]; 5 μM lenalidomide, 24 hours
  BCMA-induced CAR+ T cell cytokine production: increased BCMA-induced CAR+ T cell cytokine production
[2]; 1 μM lenalidomide during prestimulation versus vehicle
  cytokine production: trend toward increased cytokine production
[2]; 1 μM lenalidomide during the prestimulation period
  cytolytic function: preserved cytolytic function
[3]; 5 μM, three days with 200 μg BCMA beads at 1:1, versus vehicle
  proliferative capacity of T cells (CTV): increased the proliferative capacity of T cells
[3]; lenalidomide present during BCMA bead or anti-CD3 stimulation
  surface expression of CD25 in CD4+ and CD8+ T cells: further increased the extent of surface expression of CD25
[4]; 50 ug beads, day 7
  proliferation (cell count): small increase in proliferation
[4]; 50 μg/mL beads, day 4 but not day 7
  proliferation as assessed by CTV dilution: slight delay in proliferation
[5]
  extent of CAR+ T cell expansion: did not substantially impact the extent of CAR+ T cell expansion
